Measured values reported in article PMC7939570, “Discovery of potent histone deacetylase inhibitors with modified phenanthridine caps” (Journal of Enzyme Inhibition and Medicinal Chemistry, 2021).

Columns and labels:
[1] = system: U937 cells; experiment: MTT antiproliferative assay, U937 cells; settings: U937 cells, MTT, mean of three experiments; for inhibition at 1 µM: Homo sapiens, U-937, read-out: U937 percentage inhibitory rate, 1 µM; for U937 percentage inhibitory rate: 1 µM
[2] = system: Hela nucleus extract containing a mixture of HDAC isoforms; experiment: HDAC enzyme inhibitory assay with Hela nucleus extract; assay type: biochemical; settings: 1 µM, mean of three experiments
Method: The HDAC enzyme inhibitory activities of synthesised compounds were investigated by utilising Hela nucleus extract containing a mixture of HDAC isoforms. Percentage inhibitory rate was used to determine the activity of tested compounds (Tables 1 and 2). The Fa series compounds were firstly synthesised for the activity screening. […] To investigate whether aromatic linker could improve the inhibitory activities, structural modifications were performed on current molecules.

Row | Compound | HDACs percentage inhibitory rate [2] [%] | inhibition at 1 µM [1] [%] | U937 percentage inhibitory rate [1] [%]
1 | CCCc1ccc(C(=O)Nc2cc3c(cc2-c2ccc(C(=O)NCCCC(=O)NO)cc2)OCO3)cc1 [Fa-20, 4-{4-[6–(4-Propyl-benzoylamino)-benzo[1,3]dioxol-5-yl]-benzoylamino}-N-Hydroxy-butyramide] | 21.14 ± 2.55 | 12.2 ± 0.24 | –
2 | CCc1ccc(C(=O)Nc2cc3c(cc2-c2ccc(C(=O)NCCCC(=O)NO)cc2)OCO3)cc1 [Fa-7, 4-{4-[6-(4-Ethyl-benzoylamino)-benzo[1,3]dioxol-5-yl]-benzoylamino}-N-Hydroxy-butyramide] | 25.79 ± 5.79 | 22.2 ± 2.28 | –
3 | CC(C)(C)OC(=O)Nc1cc2c(cc1-c1ccc(C(=O)NCc3ccc(C(=O)NO)cc3)cc1)OCO2 [Fb-13, 4-{[4–(6-Tert-Butoxycarbonylamino-benzo[1,3]dioxol-5-yl)-benzoylamino]-methyl}-N-Hydroxy-benzamide] | 48.09 ± 3.01 | 75.5 ± 2.4 | –
4 | O=C(CCCNC(=O)c1ccc(-c2cc3c(cc2NC(=O)c2cccc(Br)c2)OCO3)cc1)NO [Fa-1, 4-{4-[6–(3-Bromo-benzoylamino)-benzo[1,3]dioxol-5-yl]-benzoylamino}-N-Hydroxy-butyramide] | 6.63 ± 1.28 | 21 ± 0.55 | –
5 | 4-{4-[6–(3-Nitro-benzoylamino)-benzo[1,3]dioxol-5-yl]-benzoylamino}-N-Hydroxy-butyramide [Fa-17] | 52.44 ± 6.17 | – | 13.42 ± 0.81
6 | O=C(CCCNC(=O)c1ccc(-c2cc3c(cc2NC(=O)c2cc(F)cc(F)c2)OCO3)cc1)NO [Fa-14, 4-{4-[6–(3,5-Difluoro-benzoylamino)-benzo[1,3]dioxol-5-yl]-benzoylamino}-N-Hydroxy-butyramide] | 28.72 ± 4.74 | 9.84 ± 0.71 | –
7 | O=C(CCCNC(=O)c1ccc(-c2cc3c(cc2NC(=O)c2ccc(F)c(C(F)(F)F)c2)OCO3)cc1)NO [Fa-23, 4-{4-[6–(4-Fluoro-3-trifluoromethyl-benzoylamino)-benzo[1,3]dioxol-5-yl]-benzoylamino}-N-Hydroxy-butyramide] | 20.29 ± 0.29 | 17.4 ± 3.35 | –
8 | COc1ccc(C(=O)Nc2cc3c(cc2-c2ccc(C(=O)NCCCC(=O)NO)cc2)OCO3)cc1 [Fa-13, 4-{4-[6–(4-Methoxy-benzoylamino)-benzo[1,3]dioxol-5-yl]-benzoylamino}-N-Hydroxy-butyramide] | 44.51 ± 0.22 | 88.9 ± 5 | –
9 | Cc1ccccc1C(=O)Nc1cc2c(cc1-c1ccc(C(=O)NCc3ccc(C(=O)NO)cc3)cc1)OCO2 [Fb-9, 4-({4-[6–(2-Methyl-benzoylamino)-benzo[1,3]dioxol-5-yl]-benzoylamino}-methyl)-N-Hydroxy-benzamide] | 35.97 ± 3.07 | 69.2 ± 3.08 | –
10 | O=C(CCCNC(=O)c1ccc(-c2cc3c(cc2NC(=O)c2cccc(C(F)(F)F)c2)OCO3)cc1)NO [Fa-9, 4-{4-[6-(3-Trifluoromethyl-benzoylamino)-benzo[1,3]dioxol-5-yl]-benzoylamino}-N-Hydroxy-butyramide] | 18.92 ± 1.30 | 20.45 ± 0.05 | –
11 | O=C(CCCNC(=O)c1ccc(-c2cc3c(cc2NC(=O)c2ccccc2F)OCO3)cc1)NO [Fa-8, 4-{4-[6-(2-Fluoro-benzoylamino)-benzo[1,3]dioxol-5-yl]-benzoylamino}-N-Hydroxy-butyramide] | 5.32 ± 1.72 | 19.9 ± 1.96 | –
12 | O=C(CCCNC(=O)c1ccc(-c2cc3c(cc2NC(=O)c2ccccc2)OCO3)cc1)NO [Fa-11, 4-[4–(6-Benzoylamino-benzo[1,3]dioxol-5-yl)-benzoylamino]-N-Hydroxy-butyramide] | 14.32 ± 2.19 | 25.6 ± 1.76 | –
13 | O=C(CCCNC(=O)c1ccc(-c2cc3c(cc2NC(=O)c2cccc(F)c2)OCO3)cc1)NO [Fa-5, 4-{4-[6-(3-Fluoro-benzoylamino)-benzo[1,3]dioxol-5-yl]-benzoylamino}-N-Hydroxy-butyramide] | – | 19.9 ± 1.33 | 33.95 ± 1.70
14 | O=C(CCCNC(=O)c1ccc(-c2cc3c(cc2NC(=O)c2ccc(F)cc2C(F)(F)F)OCO3)cc1)NO [Fa-18, 4-{4-[6–(4-Fluoro-2-trifluoromethyl-benzoylamino)-benzo[1,3]dioxol-5-yl]-benzoylamino}-N-Hydroxy-butyramide] | 31.47 ± 3.47 | 10.3 ± 1.31 | –
15 | O=C(CCCNC(=O)c1ccc(-c2cc3c(cc2NC(=O)c2ccccc2Cl)OCO3)cc1)NO [Fa-10, 4-{4-[6-(2-Chloro-benzoylamino)-benzo[1,3]dioxol-5-yl]-benzoylamino}-N-Hydroxy-butyramide] | 23.41 ± 1.95 | 23 ± 1.23 | –

More lines, main results first:

Row | HDACs percentage inhibitory rate [2] [%] | Compound | inhibition at 1 µM [1] [%] | U937 percentage inhibitory rate [1] [%]
16 | 47.09 ± 0.62 | O=C(NO)c1ccc(CNC(=O)c2ccc(-c3cc4c(cc3NC(=O)c3cccc(C(F)(F)F)c3)OCO4)cc2)cc1 [Fb-8, 4-({4-[6–(3-Trifluoromethyl-benzoylamino)-benzo[1,3]dioxol-5-yl]-benzoylamino}-methyl)-N-Hydroxy-benzamide] | 78.2 ± 3.05 | –
17 | 58.84 ± 2.40 | Nc1cc2c(cc1-c1ccc(C(=O)NCc3ccc(C(=O)NO)cc3)cc1)OCO2 [Fb-14, 4-{[4–(6-Amino-benzo[1,3]dioxol-5-yl)-benzoylamino]-methyl}-N-Hydroxy-benzamide] | 75.6 ± 2.28 | –
18 | 13.65 ± 4.04 | Cc1ccccc1C(=O)Nc1cc2c(cc1-c1ccc(C(=O)NCCCC(=O)NO)cc1)OCO2 [Fa-4, 4-{4-[6-(2-Methyl-benzoylamino)-benzo[1,3]dioxol-5-yl]-benzoylamino}-N-Hydroxy-butyramide] | 18.2 ± 2.91 | –
19 | 34.10 ± 1.02 | O=C(CCCNC(=O)c1ccc(-c2cc3c(cc2NC(=O)c2ccc(OC(F)(F)F)cc2)OCO3)cc1)NO [Fa-16, 4-{4-[6–(4-Trifluoromethoxy-benzoylamino)-benzo[1,3]dioxol-5-yl]-benzoylamino}-N-Hydroxy-butyramide] | 16.1 ± 2.82 | –
20 | 15.58 ± 3.25 | O=C(CCCNC(=O)c1ccc(-c2cc3c(cc2NC(=O)c2c(F)cccc2Cl)OCO3)cc1)NO [Fa-21, 4-{4-[6–(2-Chloro-6-fluoro-benzoylamino)-benzo[1,3]dioxol-5-yl]-benzoylamino}-N-Hydroxy-butyramide] | 11.2 ± 1.01 | –
21 | 17.69 ± 3.52 | O=C(CCCNC(=O)c1ccc(-c2cc3c(cc2NC(=O)c2ccc(C(F)(F)F)cc2)OCO3)cc1)NO [Fa-12, 4-{4-[6–(4-Trifluoromethyl-benzoylamino)-benzo[1,3]dioxol-5-yl]-benzoylamino}-N-Hydroxy-butyramide] | 48.5 ± 3.98 | –
22 | 58.36 ± 5.06 | O=C(NO)c1ccc(CNC(=O)c2ccc(-c3cc4c(cc3NC(=O)c3cccc(F)c3)OCO4)cc2)cc1 [Fb-6, 4-({4-[6–(3-Fluoro-benzoylamino)-benzo[1,3]dioxol-5-yl]-benzoylamino}-methyl)-N-Hydroxy-benzamide] | 92.2 ± 2.72 | –
23 | 57.50 ± 2.92 | O=C(NO)c1ccc(CNC(=O)c2ccc(-c3cc4c(cc3NC(=O)c3ccccc3)OCO4)cc2)cc1 [Fb-1, 4-{[4–(6-Benzoylamino-benzo[1,3]dioxol-5-yl)-benzoylamino]-methyl}-N-Hydroxy-benzamide] | 65.2 ± 0.29 | –
24 | 47.03 ± 15.05 | O=C(NO)c1ccc(CNC(=O)c2ccc(-c3cc4c(cc3NC(=O)c3ccc(C(F)(F)F)cc3)OCO4)cc2)cc1 [Fb-7, 4-({4-[6–(4-Trifluoromethyl-benzoylamino)-benzo[1,3]dioxol-5-yl]-benzoylamino}-methyl)-N-Hydroxy-benzamide] | 84.9 ± 1.68 | –
25 | 19.51 ± 4.10 | O=C(CCCNC(=O)c1ccc(-c2cc3c(cc2NC(=O)c2ccc(F)cc2F)OCO3)cc1)NO [Fa-15, 4-{4-[6–(2,4-Difluoro-benzoylamino)-benzo[1,3]dioxol-5-yl]-benzoylamino}-N-Hydroxy-butyramide] | 6.76 ± 0.26 | –
26 | 24.88 ± 4.88 | O=C(CCCNC(=O)c1ccc(-c2cc3c(cc2NC(=O)c2ccccc2C(F)(F)F)OCO3)cc1)NO [Fa-6, 4-{4-[6-(2-Trifluoromethyl-benzoylamino)-benzo[1,3]dioxol-5-yl]-benzoylamino}-N-Hydroxy-butyramide] | 15 ± 2.47 | –
27 | 24.89 ± 4.89 | O=C(CCCNC(=O)c1ccc(-c2cc3c(cc2NC(=O)c2cc(F)ccc2F)OCO3)cc1)NO [Fa-22, 4-{4-[6–(2,5-Difluoro-benzoylamino)-benzo[1,3]dioxol-5-yl]-benzoylamino}-N-Hydroxy-butyramide] | 4.73 ± 0.64 | –
28 | 59.61 ± 6.64 | O=C(NO)c1ccc(CNC(=O)c2ccc(-c3cc4c(cc3NC(=O)c3ccccc3Cl)OCO4)cc2)cc1 [Fb-12, 4-({4-[6–(2-Chloro-benzoylamino)-benzo[1,3]dioxol-5-yl]-benzoylamino}-methyl)-N-Hydroxy-benzamide] | 76.6 ± 6.97 | –
29 | 49.47 ± 9.25 | O=C(NO)c1ccc(CNC(=O)c2ccc(-c3cc4c(cc3NC(=O)c3cccc(Br)c3)OCO4)cc2)cc1 [Fb-10, 4-({4-[6–(3-Bromo-benzoylamino)-benzo[1,3]dioxol-5-yl]-benzoylamino}-methyl)-N-Hydroxy-benzamide] | 86.2 ± 4.18 | –
30 | 15.23 ± 3.23 | COc1ccccc1C(=O)Nc1cc2c(cc1-c1ccc(C(=O)NCCCC(=O)NO)cc1)OCO2 [Fa-2, 4-{4-[6–(2-Methoxy-benzoylamino)-benzo[1,3]dioxol-5-yl]-benzoylamino}-N-Hydroxy-butyramide] | 19.2 ± 1.09 | –
